≈ marks a conversion by molar mass, not a printed value.
How the values were obtained:
[1] = Solubility of the compound; assay type: physicochemical
[2] = Half life in human liver microsomes; assay type: ADME, Microsome
[3] = Half life in human hepatic S9 fraction; assay type: ADME, subcellular, Liver

solubility [1] [µM]	half-life [2] [min]	half-life [3] [min]	SMILES
2 (≈ 0.811 µg/mL)	–	–	O=C(Nc1ccc(-c2ccccc2)cc1)Nc1ccc(-c2ccnc3[nH]cnc23)cc1
–	8	8	CCOC(=O)c1cccc(NC(=O)Nc2ccc(-c3ccnc4[nH]cnc34)cc2)c1

— ChEMBL document CHEMBL1949669, “Imidazopyridines as selective CYP3A4 inhibitors” (Bioorg Med Chem Lett, 2012)
